Results from PubChem BioAssay (NCI).
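Compound exposure: 48 hours, 5 concentrations, 96-well plates. GI50 = concentration required for 50% inhibition of growth. TGI denotes the concentration required for complete inhibition of growth.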

Legend:
Assay in all cases: NCI tumour cell line growth inhibition, 48 h
CCRF-CEM leukemia = tested on: CCRF-CEM leukemia
DU-145 prostate = tested on: DU-145 prostate
HOP-92 NSCLC = tested on: HOP-92 NSCLC
MCF7 breast = tested on: MCF7 breast
NCI/ADR-RES ovarian = tested on: NCI/ADR-RES ovarian
OVCAR-3 ovarian = tested on: OVCAR-3 ovarian
SK-OV-3 ovarian = tested on: SK-OV-3 ovarian
SN12C renal = tested on: SN12C renal
SW-620 colon = tested on: SW-620 colon
T-47D breast = tested on: T-47D breast

| SMILES | GI50 (CCRF-CEM leukemia) | TGI (CCRF-CEM leukemia) | GI50 (DU-145 prostate) | TGI (DU-145 prostate) | GI50 (HOP-92 NSCLC) | TGI (HOP-92 NSCLC) | GI50 (MCF7 breast) | TGI (MCF7 breast) | GI50 (NCI/ADR-RES ovarian) | TGI (NCI/ADR-RES ovarian) | GI50 (OVCAR-3 ovarian) | TGI (OVCAR-3 ovarian) | GI50 (SK-OV-3 ovarian) | TGI (SK-OV-3 ovarian) | GI50 (SN12C renal) | TGI (SN12C renal) | GI50 (SW-620 colon) | TGI (SW-620 colon) | GI50 (T-47D breast) | TGI (T-47D breast) |
| --- | --- | --- | --- | --- | --- | --- | --- | --- | --- | --- | --- | --- | --- | --- | --- | --- | --- | --- | --- | --- |
| Cc1cc(OCc2nnc3n2N=C(c2ccc(Cl)cc2Cl)CS3)ccc1Cl | 42.2 µM | > 100 µM | 69.7 µM | > 100 µM | > 100 µM | > 100 µM | 39.1 µM | > 100 µM | 51.8 µM | > 100 µM | 35.9 µM | > 100 µM | > 100 µM | > 100 µM | 38.7 µM | > 100 µM | > 100 µM | > 100 µM | 40.5 µM | > 100 µM |
| C=C1c2c(Cl)ccc(O)c2C(O)=C2C(=O)[C@]3(O)C(O)=C(C(N)=O)C(=O)[C@@H](N(C)C)[C@@H]3[C@@H](O)[C@H]12 | 1.45 µM | 39.6 µM | 1.62 µM | 9.15 µM | 0.669 µM | 2.16 µM | 1.76 µM | 6.66 µM | 2.43 µM | > 50 µM | 1.36 µM | 5.25 µM | 1 µM | 3.2 µM | 1.38 µM | 12.4 µM | 1.5 µM | > 50 µM | 1.07 µM | 4.06 µM |
| CN1C(Cl)=NS(=O)(=O)c2ccccc21 |  | > 100 µM |  | > 100 µM |  | > 100 µM |  | > 100 µM |  | > 100 µM |  | > 100 µM |  | > 100 µM |  | > 100 µM |  | > 100 µM |  | > 100 µM |
| Cc1cccc(Nc2cnc(N)nc2N)c1 |  | > 100 µM |  | > 100 µM |  | > 100 µM |  | > 100 µM |  | > 100 µM |  | > 100 µM |  | > 100 µM |  | > 100 µM |  | > 100 µM |  | > 100 µM |
| CO[C@H]1CC(c2ccc[nH]2)=N[C@]12O[C@@H](C)C[C@@H]1CCCCCCCc3ccc([nH]3)[C@H]12 | 0.704 µM | > 30.4 µM | 1.49 µM | > 23.1 µM | 0.8 µM | 4.81 µM | 0.968 µM | > 16.7 µM | 1.1 µM | 9.9 µM | 0.942 µM | 5.62 µM | 4.41 µM | 18.9 µM | 1.49 µM | 18.9 µM | 1.05 µM | 7.96 µM | 0.732 µM | > 19.2 µM |
| COc1ccc2nc(NC(=O)c3cccnc3Nc3cc(OC)c(OC)c(OC)c3)sc2c1 | 20.1 µM | > 100 µM | 14.6 µM | 33.8 µM | 2.24 µM | 9.5 µM | 0.515 µM | 13.6 µM | 8.97 µM | 25.7 µM | 8.92 µM | 21.5 µM | 3.72 µM | 14.5 µM | 11.7 µM | 27.5 µM | 11.8 µM | 24.5 µM | 5.06 µM | 51.3 µM |
| C/C=C(\C)C(=O)N[C@H]1C(O)C[C@]2(C)C3CC[C@@]4(C)C(CC[C@@H]4C(C)N(C)C)C3CCC2C1O (stereo partly drawn) | 7.76 µM | 75.8 µM | 12.6 µM | > 83.3 µM | 6.44 µM | 33.4 µM | 2.89 µM | 17.4 µM | 18.4 µM | > 75.5 µM | 4.68 µM | 19.5 µM | 16.1 µM | 42.4 µM | 8.47 µM | 37.9 µM | 2.31 µM | 6.06 µM | 2.91 µM | 17.7 µM |
| CC(Br)C(=O)Nc1ccc(C(=O)O)c(O)c1 (stereo not drawn) |  | 43.6 µM |  | > 100 µM |  | > 100 µM |  | > 100 µM |  | > 100 µM |  | 73.7 µM |  | > 100 µM |  | 66.1 µM |  | > 100 µM |  | > 100 µM |
| CCN(CC)CCOc1ccc(C(=O)/C=C\c2ccc(Cl)cc2Cl)cc1 | 2.57 µM | 9.09 µM | 10.3 µM | 22 µM | 3.63 µM | 16.3 µM | 1.29 µM | 3.12 µM | 9.91 µM | 23.3 µM | 3.84 µM | 14.3 µM | 11.8 µM | 24.3 µM | 6.52 µM | 21.9 µM | 1.87 µM | 4.36 µM | 11.9 µM | 33.6 µM |
| COc1ccc(OC)c(Nc2nc(-c3c(C)nc4sccn34)cs2)c1 | > 100 µM | > 100 µM | > 100 µM | > 100 µM | 8.63 µM | 98.4 µM | 1.95 µM | > 100 µM | 15 µM | > 100 µM | 92.7 µM | > 100 µM | 24.6 µM | > 100 µM | > 100 µM | > 100 µM | > 100 µM | > 100 µM | 5.43 µM | > 100 µM |
| COc1ccc(C2=CC(c3ccc(OC)c(OC)c3)c3c(c4ccccc4oc3=O)O2)cc1OC (stereo not drawn) | 2.36 µM | > 100 µM | 1.73 µM | > 30.7 µM | 4.8 µM | > 100 µM | 0.424 µM | > 100 µM | 0.545 µM |  | 0.313 µM |  | 2.68 µM | > 100 µM | 4.39 µM | > 100 µM | 1.19 µM | > 100 µM | 3.66 µM | > 100 µM |
